Laboratory results as given in US20230312564A1, “AROMATIC RING-LACTAM COMPOUND, PREPARATION METHOD THEREFOR AND USE THEREOF” (SHANGHAI RINGENE BIOPHARMA CO., LTD., priority 2020, published 2023).
Several values for one entry are separate records, joined by “and”; a condition that tells them apart may be missing. Identical values can stand only once. Like-named read-outs stand apart in the source and are kept apart here. One block for each compound: values may come before it.

Legend:
[1] = Liver microsomal metabolic stability, rat; format: in vitro ADME; settings: 0.5 mg/mL microsomes, 1 μM compound, NADPH; for half-life at 1 μM: liver microsomes, read-out: Liver microsomal stability T1/2
Description: (§1) The reaction was stopped with tinidazole-containing acetonitrile at 0 min, 5 min, 10 min and 30 min, respectively. After vortexing for 10 min and centrifuging at 15,000 rmp for 10 min, 50 μL of the supernatant was injected into a 96-well plate. The metabolic stability of the compound was calculated by determining the relative reduction of the drug, calculated as half-life T1/2.

[2] = Liver microsomal metabolic stability, dog; format: in vitro ADME; settings: 0.5 mg/mL microsomes, 1 μM compound, NADPH; for half-life at 1 μM: liver microsomes, read-out: Liver microsomal stability T1/2
Description: as §1

[3] = Liver microsomal metabolic stability, human; format: in vitro ADME; settings: 0.5 mg/mL microsomes, 1 μM compound, NADPH; for half-life at 1 μM: liver microsomes, read-out: Liver microsomal stability T1/2
Description: as §1

Colo-205 cells = assay: Colo-205 tumor cell proliferation, CCK-8, 72 hours; format: cell-based; settings: for IC50: read-out: Colo-205 IC50; for cell proliferation inhibitory activity (in words): Colo-205
Description: 1. Test method: Colo-205 cells (ATCC) in logarithmic growth phase were inoculated into a 96-well culture plate at an appropriate density with 90 μL per well. After overnight culture, different concentrations of the compound were added and acted for 72 hours, and a solvent control group (negative control) was set. After the compound was acted on cells for 72 hours, the effect of the compound on cell proliferation was detected by the cell counting kit CCK-8 (Dojindo), and 10 μL of CCK-8 reagent was added to each well. After the plate was placed in a 37° C. incubator for 2 to 4 hours, a full-wavelength microplate reader SpectraMax 190 was adopted for obtaining the readings with a measured wavelength of 450 nm. […] The IC50 value was obtained by four-parameter regression with the software attached to the microplate reader.

[4] = Liver microsomal stability, comparisons in words across species; format: in vitro ADME
Description: as §1

ERK1/2 kinase = test system: T1, ERK1/2 kinase; assay: ERK1/2 kinase (Carna) inhibitory activity, Caliper mobility shift; format: biochemical; settings: for IC50: read-out: ERK½ IC50
T1 construct: fused on or other part: Carna's ERK products carry a GST tag by vendor knowledge
Description: (1) Preparation of 1×Kinase buffer; (2) preparation of compound concentration gradient: the initial test concentration of the tested compound was 10 μM, which was 3-fold diluted to 10 concentrations, and a duplicate test was conducted, and then the tested compound was diluted in a 96 well plate to a 100-fold final concentration of 10 different concentrations of solution. […] Log (inhibitor) vs. response—Variable slope of the analysis software GraphPad Prism 5 was used to fit the dose-effect curve to obtain the IC50 value of each compound on the enzyme activity.
2. […] (A<10 nM, 10 nM≤B<200 nM, C≥200 nM)

[5] = test system: Colo-205 transplanted tumor; assay: Growth inhibition of nude mice Colo-205 transplanted tumor; format: in vivo; settings: 50 mg/kg, qdx21, po
Description: The tumor tissue in the vigorous growth phase was cut into about 1.5 mm^3 and inoculated subcutaneously in the right axilla of nude mice under sterile conditions. The diameter of subcutaneous transplanted tumors in nude mice was measured with a vernier caliper, and the mice were randomly divided into groups when the average tumor volume reached about 130 mm^3. The embodiment compounds (injection water containing 1% Tween 80 were configured to a desired concentration for later use) were orally administered daily at a given dose for three consecutive weeks, and the solvent control group was administered with the same amount of solvent. During the whole test, the diameter of transplanted tumor was measured twice a week, and the mice were weighed at the same time. The calculation formula of tumor volume (TV) is expressed as TV=1/2×a×b^2, wherein a and b represent length and width, respectively. The relative tumor volume (RTV) was calculated according to the measurement results, and the calculation formula is RTV=Vt/V0, wherein V0 is the tumor volume measured when administered in separate cages (i.e., d0), and Vt is the tumor volume at the time of each measurement.

[6] = In-vivo pharmacokinetic parameters in mice; parameters: species or system Balb-c mice
Description: Six male SPF grade SD rats or Balb-c mice (Shanghai Sipple-Bikai Laboratory Animal) were divided into two groups, and the tested compounds were prepared into appropriate solutions or suspensions; one group was administered intravenously (with a dose of 1 mg/kg), and the other group was administered orally (with a dose of 5 mg/kg). Blood samples were collected by jugular vein puncture, and each sample was collected with a volume of about 0.2 mL/time point, and heparin sodium was used for anticoagulation. The time points of blood collection were listed below: 5, 15 and 30 min […], 1, 2, 4, 6, 8 and 24 h after administration; the collected blood samples were placed on ice and centrifuged to separate plasma (centrifugation conditions: 8,000 rpm, 6 min, 2 to 8° C.), and the collected plasma was stored at −80° C. before analysis. Plasma samples were analyzed by LC-MS/MS.
The pharmacokinetic parameters such as AUC0-t, AUC0-∞, MRT0-∞, Cmax, Tmax, T1/2 and Vd of the tested compounds and their mean values and standard deviations were calculated by the pharmacokinetic calculation software WinNonlin5.2 non-compartmental model according to the plasma concentration data. In addition, the bioavailability (F) was calculated by the following formula.
For samples with concentrations below the lower limit of quantitation, while pharmacokinetic parameter calculations were performed, samples sampled before Cmax was reached should be calculated as a zero value and samples sampled after Cmax was reached should be calculated as below limit of quantitation (BLQ).

[7] = rat, dog and human, compared with the comparative compound 1
[8] = male, Balb-c, mouse, plasma, IV, 1 mg/kg
[9] = male, Balb-c, mouse, plasma, PO, 5 mg/kg
[10] = Homo sapiens, COLO 205, 72 hours, CCK-8, class symbols
[11] = Homo sapiens, COLO 205, 72 hours, CCK-8, numeric values

stability in liver microsomes (in words) ([4]; rat and human, compared with the comparative compounds 1 and 4): significantly improved
stability in liver microsomes (in words) [4, 7]: significantly improved
Liver microsomal stability T1/2 [1]: 10 min and 15 min
IC50 (Colo-205 cells; 72 hours, CCK-8, class symbols): < 100 nM
Liver microsomal stability T1/2 [2]: 60 min and 70 min
IC50 (ERK1/2 kinase; numeric values): 0.7 nM
Liver microsomal stability T1/2 [3]: 18 min
Compound: Cc1cccc([C@@H](CO)NC(=O)[C@@H](C)N2Cc3ccc(-c4nc(NC5CCOCC5)ncc4Cl)c(F)c3C2=O)c1 [Embodiment 25]
enzyme inhibitory activity (in words) (ERK1/2 kinase): extremely strong enzyme inhibitory activity

F ([6]; PO 5 mg/kg vs IV 1 mg/kg): 52%
AUC(0-inf) [6, 8]: 0.407 µM·h
AUC(0-t) [6, 8]: 0.397 µM·h
MRT inf [6, 8]: 30 min
clearance [6, 8]: 75 mL/min/kg
half-life [6, 8]: 84 min
Vd ([6]; male, Balb-c, mouse, plasma, IV, 1 mg/kg, read-out: Vss): 2 L/kg
AUC(0-inf) [6, 9]: 1.06 µM·h
AUC(0-t) [6, 9]: 1.05 µM·h
Cmax [6, 9]: 1170 nM
Tmax [6, 9]: 18 min
half-life [6, 9]: 90 min
Compound: Cc1cccc([C@@H](CO)NC(=O)[C@@H](C)N2Cc3ccc(-c4nc(NC5CCOCC5)ncc4F)c(F)c3C2=O)c1 [Embodiment 31, (R)-2-(7-Fluoro-6-(5-fluoro-2-((tetrahydro-2H-pyran-4-yl)amino)pyrimidin-4-yl)-1-oxoisoindolin-2-yl)-N—((S)-2-hydroxy-1-(m-tolyl)ethyl)propanamide]
T/C [5]: 27.9%
Initial weight (D0) ([5]; D0): 20.1 g
Terminal weight (D21) ([5]; D21): 21.7 g
Initial tumor volume ([5]; initial): 96 ± 21 mm^3
Terminal tumor volume ([5]; terminal): 271 ± 128 mm^3

IC50 (Colo-205 cells; [10]): 100 to 1000 nM
IC50 (ERK1/2 kinase; class symbols): < 10 nM
Compound: C[C@H](C(=O)N[C@H](CO)c1cccc(Cl)c1)N1Cc2ccc(-c3nc(NC4CCC(O)C(F)C4)ncc3F)c(F)c2C1=O (stereo partly drawn) [Embodiment 39]
enzyme inhibitory activity (in words) (ERK1/2 kinase): extremely strong enzyme inhibitory activity

IC50 (Colo-205 cells; [10]): < 100 nM
IC50 (ERK1/2 kinase; numeric values): < 1 nM
Compound: Cc1cc([C@@H](CO)NC(=O)[C@@H](C)N2Cc3ccc(-c4nc(NC5CCOCC5)ncc4F)c(F)c3C2=O)ccn1 [Embodiment 41]

IC50 (Colo-205 cells; [10]): 100 to 1000 nM
IC50 (ERK1/2 kinase; class symbols): < 10 nM
Compound: C[C@H](C(=O)NCc1cccc(N(C)C)n1)N1Cc2ccc(-c3nc(NC4CCOCC4)ncc3F)c(F)c2C1=O [Embodiment 47]

IC50 (Colo-205 cells; [10]): < 100 nM
IC50 (ERK1/2 kinase; class symbols): < 10 nM
Compound: C[C@H](C(=O)N[C@H](CO)c1cccc(Cl)c1)N1Cc2ccc(-c3nc(NC4CC[C@H](O)[C@@H](F)C4)ncc3F)c(F)c2C1=O (stereo partly drawn) [Embodiment 50]

Further lines, the compound ahead of its results:

Compound: Cc1cccc([C@@H](CO)NC(=O)[C@@H](C)N2Cc3ccc(-c4nc(NC5CCOCC5)ncc4Cl)cc3C2=O)c1 [Comparative compound 1, (R)-2-(6-(5-Chloro-2-((tetrahydro-2H-pyran-4-yl)amino)pyrimidin-4-yl)-1-oxoisoindolin-2-yl)-N—((S′)-2-hydroxy-1l-(in-tolyl)ethyl)propanamide, reference compound]
half-life at 1 μM [1]: 4 min
half-life at 1 μM [2]: 40 min
half-life at 1 μM [3]: 3 min

Compound: Cc1cccc([C@@H](CO)NC(=O)[C@@H](C)N2Cc3ncc(-c4nc(NC5CCOCC5)ncc4Cl)cc3C2=O)c1 [Comparative compound 3, (R)-2-(3-(5-Chloro-2-((tetrahydro-2H-pyran-4-yl)amino)pyrimidin-4-yl)-5-oxo-5,7-dihydro-6H-pyrrolo[3,4-b]pyridin-6-yl)-N—((S)-2-hydroxy-1-(m-tolyl)ethyl)propanamide, reference compound]
half-life at 1 μM [1]: 6 min
IC50 (Colo-205 cells; Homo sapiens, COLO 205, 72 h): 53.1 nM
half-life at 1 μM [2]: 201 min
half-life at 1 μM [3]: 6 min

Compound: Cc1cccc([C@@H](CO)NC(=O)[C@@H](C)N2Cc3c(F)cc(-c4nc(NC5CCOCC5)ncc4Cl)cc3C2=O)c1 [Comparative compound 4, (R)-2-(6-(5-Chloro-2-((tetrahydro-2H-pyran-4-yl)amino)pyrimidin-4-yl)-4-fluoro-1-oxoisoindolin-2-yl)-N—((S)-2-hydroxy-1-(m-tolyl)ethyl)propanamide, reference compound]
half-life at 1 μM [1]: 3 min
IC50 (Colo-205 cells; Homo sapiens, COLO 205, 72 h): 37.8 nM
half-life at 1 μM [2]: 60 min
half-life at 1 μM [3]: 3 min

Compound: COc1cc(F)cc([C@@H](CO)NC(=O)[C@@H](C)N2Cc3ccc(-c4nc(NC5CC(F)(F)C5)ncc4F)c(F)c3C2=O)c1 [Embodiment 43]
IC50 (Colo-205 cells; [10]): < 100 nM
IC50 (ERK1/2 kinase; class symbols): < 10 nM

Compound: COc1cc(F)cc([C@@H](CO)NC(=O)[C@@H](C)N2Cc3ccc(-c4nc(Nc5ccnn5C)ncc4F)c(F)c3C2=O)c1 [Embodiment 45]
cell proliferation inhibitory activity (in words) (Colo-205 cells): strong cell proliferation inhibitory activity
IC50 (Colo-205 cells; [10]): < 100 nM
enzyme inhibitory activity (in words) (ERK1/2 kinase): extremely strong enzyme inhibitory activity
IC50 (ERK1/2 kinase; numeric values): < 1 nM

Compound: Cn1nccc1Nc1nccc(-c2ccn([C@H](CO)c3ccc(Cl)c(F)c3)c(=O)c2)n1 [GDC0994, reference compound]
IC50 (Colo-205 cells; [11]): 165 nM
IC50 (ERK1/2 kinase; class symbols): < 10 nM

Compound: Cn1nccc1Nc1nccc(-c2cc3c(s2)C(C)(C)N(CCN2CCOCC2)C3=O)n1 [LY3214996, reference compound]
IC50 (Colo-205 cells; [11]): 316 nM
IC50 (ERK1/2 kinase; class symbols): < 10 nM

Compound: C[C@H](C(=O)N[C@H](CO)c1cccc(Cl)c1)N1Cc2ccc(-c3ccnc(Nc4ccnn4C)c3)cc2C1=O [compound 2, (R)—N—((S)-1-(3-Chlorophenyl)-2-hydroxyethyl)-2-(6-(2-((1-methyl-1H-pyrazol-5-yl)amino)pyridin-4-yl)-1-oxoisoindolin-2-yl)propanamide, reference compound]
stability in liver microsomes (in words) [4, 7]: significantly improved
stability in liver microsomes (in words) ([4]; rat, dog and human, compared with the comparative compounds 1 and 3): significantly improved
Liver microsomal stability T1/2 [1]: 18 min
IC50 (Colo-205 cells; 72 hours, CCK-8, numeric values): 88.6 nM
cell proliferation inhibitory activity (in words) (Colo-205 cells): strong cell proliferation inhibitory activity
IC50 (Colo-205 cells; [11]): 354 nM
Liver microsomal stability T1/2 [2]: 403 min
enzyme inhibitory activity (in words) (ERK1/2 kinase): extremely strong enzyme inhibitory activity
Liver microsomal stability T1/2 [3]: 15 min

Compound: (R)-2-(6-(5-Chloro-2-((tetrahydro-2H-pyran-4-yl)amino)pyrimidin-4-yl)-4-fluoro-1-oxoisoindolin-2-yl)-N—((S)-2-hydroxy-1-(m-tolyl)ethyl)propanamide [Comparative compound 4, reference compound]
IC50 (Colo-205 cells; 72 hours, CCK-8, class symbols): > 1000 nM
IC50 (ERK1/2 kinase; numeric values): 105 nM
